Data: paper PMC10947113, “A Bivalent Activatable Fluorescent Probe for Screening and Intravital Imaging of Chemotherapy‐Induced Cancer Cell Death” (Angewandte Chemie (Weinheim an Der Bergstrasse, Germany), 2021)
Starred links: 1 amine or outer side, 2 acyl side, 3 side chain; linkers in the order of their positions; H or OH if unused. Non-standard residues stand in square brackets, D forms with d. Residues, ends and D or L forms follow the SMILES beside them. X1 = CC1=CC(C)=[N+]2C1=C(c1cccc(-c3[nH]c4ccccc4c3C[C@H](N[*:1])C(=O)[*:2])c1)c1ccc(-c3ccc(C)s3)n1[B-]2(F)F

How the values were obtained:
[1] = system: MDA-MB-231 cells; experiment: Cell viability, TACS MTT cell proliferation assay, MDA-MB-231; assay type: cell-based, human; conditions: different working concentrations, 3 h, means ± SD (n=5), ns for p>0.05
Experimental: (§1) Figure S15. Cell viability experiments (TACS® MTT cell proliferation assay) after incubation of Apotracker Red in breast cancer cell lines (a: MCF7 cells, b: MDA-MB-231 cells) at different concentrations for 3 h. Data presented as means ± SD (n=5). P values obtained from one- way ANOVA using multiple comparisons (ns for p>0.05).
(§2) Figure S16. Quantification of E GFP+ macrophages in tumours from untreated and cisplatin-treated mice by time- lapse imaging on a spinning disk confocal microscope (λexc: 488 nm). Data presented as means ± SD of 8 random areas in 2- 3 mice per group (untreated or treated with 10 μg g-1 cisplatin for 72 h). […]

[2] = Stability analysis in mouse serum; assay type: in vitro ADME; conditions: 24 h, 37 °C, 500 rpm shaker, 50 μM (method) or 25 μM (Figure S14), CH3CN protein precipitation, HPLC traces and fluorescence emission (exc 520 nm)
Experimental: Figure S14. Stability analysis of Apotracker Red in mouse serum. HPLC traces of Apotracker Red (25 μM) after incubation in PBS buffer or mouse serum for 24 h at 37 °C . […]
fluorescence emission of Apotracker Red before and after incubation in mouse serum and […]
(1 picture or pasted object on this page, not shown here) […]
r.t., followed by separation from erythrocytes by centrifugation for 10 min, 2, 000 g at r.t. Sera were transferred into new tubes and stored at - 20°C until use. 50 μM Apotracker Red in PBS or in serum were incubated fo r 24 h at 37 °C on a vertical shaker at 500 rpm . A s control s, seru m without peptide and freshly aliquoted 50 μM Apotracker Red in mouse serum were used.
Fluorescence spectra were recorded after excitation at 520 nm. For HPLC measurements, proteins were precipitated by addition of CH3CN and centrifugation at 300 g fo r 5 m in a t r.t. and the resulting supernatants were injected.
Lipid layer assays . […] The limit of detection (LoD) of Apotracker Red for PtdSer was determined by fluorescence titration of serial dilutions of Pt dSer layers after incubation with Apotracker Red (1 μM, PBS) at 25 °C for 40 min. The LoD was calculated using the equation LoD = (3 × σ)/k, where σ is the standard deviation of blank solutions and k is the slope of the linear regression fit. Data was recorded on Cytation 3 (exc: 530 nm). […]

[3] = system: MCF7 cells; experiment: Cell viability, TACS MTT cell proliferation assay, MCF7; assay type: cell-based, human; conditions: different working concentrations, 3 h, means ± SD (n=5), ns for p>0.05
Experimental: as §1, §2

Compound: CC1=CC(C)=[N+]2C1=C(c1cccc(-c3[nH]c4ccccc4c3C[C@@H]3NC(=O)[C@H](Cc4ccccc4)NC(=O)[C@H](Cc4c[nH]c5ccccc45)NC(=O)[C@H](CCCCN)NC(=O)[C@H](CCCCN)NC(=O)[C@H](CCCNC(=N)N)NC(=O)CNC3=O)c1)c1ccc(-c3ccc(C)s3)n1[B-]2(F)F [Apotracker Red] (cyclo(F[X1]GRKKW))
- cell toxicity (MTT cell viability), MDA-MB-231 [1]: did not cause cell toxicity
- proteolytic stability in mouse serum [2]: good proteolytic stability for up to 24 h
- cell toxicity (MTT cell viability), MCF7 [3]: did not cause cell toxicity
